{"source": "ChEMBL document CHEMBL2169823", "about": "“cis-4-amino-L-proline residue as a scaffold for the synthesis of cyclic and linear endomorphin-2 analogues: part 2” (J Med Chem, 2012)", "key": {"[1]": {"molecular_target": "Delta-type opioid receptor (Mus musculus) (UniProt P32300)", "sequence (P32300 whole entry)": "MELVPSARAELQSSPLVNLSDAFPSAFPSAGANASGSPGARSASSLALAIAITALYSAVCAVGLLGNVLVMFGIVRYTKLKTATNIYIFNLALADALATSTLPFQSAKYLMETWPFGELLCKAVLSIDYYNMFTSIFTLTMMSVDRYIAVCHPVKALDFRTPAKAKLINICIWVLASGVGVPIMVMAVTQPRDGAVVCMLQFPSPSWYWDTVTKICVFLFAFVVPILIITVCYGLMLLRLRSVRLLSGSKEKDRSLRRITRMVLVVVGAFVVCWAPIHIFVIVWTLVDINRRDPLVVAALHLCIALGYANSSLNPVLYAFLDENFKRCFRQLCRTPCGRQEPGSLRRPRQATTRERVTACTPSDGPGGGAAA", "assay": "Agonist activity at delta opioid receptor in ICR mouse vas deferens assessed as inhibition of electrically-induced smooth muscle contraction at 1 uM after 3 mins; call rule not given here", "assay_type": "functional, tissue-based"}, "[2]": {"molecular_target": "Delta-type opioid receptor (Homo sapiens, UniProt P41143)", "sequence (P41143 whole entry)": "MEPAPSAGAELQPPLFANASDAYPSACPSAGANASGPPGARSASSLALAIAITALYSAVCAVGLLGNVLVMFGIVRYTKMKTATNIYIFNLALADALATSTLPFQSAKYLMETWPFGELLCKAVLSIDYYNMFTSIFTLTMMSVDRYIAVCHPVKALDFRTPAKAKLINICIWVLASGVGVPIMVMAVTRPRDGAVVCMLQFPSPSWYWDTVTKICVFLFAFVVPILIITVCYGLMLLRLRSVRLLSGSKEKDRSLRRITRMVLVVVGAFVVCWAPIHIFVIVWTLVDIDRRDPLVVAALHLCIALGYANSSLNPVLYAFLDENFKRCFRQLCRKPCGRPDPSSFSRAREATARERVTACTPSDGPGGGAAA", "assay": "Displacement of [3H]DPDPE from delta opioid receptor transfected in […] HN9.10 cells after 3 hrs by liquid scintillation counter", "assay_type": "cell-based"}, "Mu-type opioid receptor [3]": {"molecular_target": "Mu-type opioid receptor (Homo sapiens, UniProt P35372)", "sequence (P35372 whole entry)": "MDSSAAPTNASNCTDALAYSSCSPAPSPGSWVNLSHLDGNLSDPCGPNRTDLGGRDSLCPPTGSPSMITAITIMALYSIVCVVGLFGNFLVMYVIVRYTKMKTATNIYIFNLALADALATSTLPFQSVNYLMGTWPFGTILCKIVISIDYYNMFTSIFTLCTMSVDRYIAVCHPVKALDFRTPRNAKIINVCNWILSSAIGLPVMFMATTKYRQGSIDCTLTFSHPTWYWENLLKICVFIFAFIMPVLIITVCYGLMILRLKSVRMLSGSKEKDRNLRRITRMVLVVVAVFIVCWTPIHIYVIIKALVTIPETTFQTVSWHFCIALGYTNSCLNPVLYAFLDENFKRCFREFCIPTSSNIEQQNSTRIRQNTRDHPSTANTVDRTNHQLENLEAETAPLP", "assay": "Displacement of [3H]DAMGO from mu opioid receptor transfected in […] HN9.10 cells after 3 hrs by liquid scintillation counter", "assay_type": "cell-based"}, "[4]": {"molecular_target": "Mu-type opioid receptor (Cavia porcellus) (UniProt P97266)", "sequence (P97266 whole entry)": "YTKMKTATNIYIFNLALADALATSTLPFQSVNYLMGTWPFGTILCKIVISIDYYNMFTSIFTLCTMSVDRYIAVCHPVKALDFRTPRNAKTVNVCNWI", "assay": "Agonist activity at mu opioid receptor in Hartley guinea pig ileum longitudinal muscle myenteric plexus assessed as inhibition of electrically-induced smooth muscle contraction at 1 uM after 3 mins", "assay_type": "functional, tissue-based"}, "[5]": {"molecular_target": "Kappa-type opioid receptor (Homo sapiens, UniProt P41145)", "sequence (P41145 whole entry)": "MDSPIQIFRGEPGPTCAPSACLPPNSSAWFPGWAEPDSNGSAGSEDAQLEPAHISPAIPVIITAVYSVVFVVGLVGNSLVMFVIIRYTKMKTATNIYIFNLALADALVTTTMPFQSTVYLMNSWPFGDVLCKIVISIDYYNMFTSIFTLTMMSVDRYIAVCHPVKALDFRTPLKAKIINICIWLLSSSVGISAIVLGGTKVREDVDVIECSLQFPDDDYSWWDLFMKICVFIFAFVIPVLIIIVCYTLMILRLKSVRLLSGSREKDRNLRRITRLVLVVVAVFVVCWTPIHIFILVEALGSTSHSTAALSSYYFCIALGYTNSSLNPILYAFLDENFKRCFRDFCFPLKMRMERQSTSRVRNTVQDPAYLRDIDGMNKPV", "assay": "Displacement of [3H]U69593 from human kappa opioid receptor expressed in CHO cells after 60 mins by liquid scintillation counter", "assay_type": "cell-based"}, "[6]": {"molecular_target": "Delta-type opioid receptor (Mus musculus, UniProt P32300)", "sequence (P32300 whole entry)": "as the sequence (P32300 whole entry) above", "assay": "Agonist activity at delta opioid receptor in ICR mouse vas deferens assessed as inhibition of electrically-induced smooth muscle contraction after 3 mins", "assay_type": "functional, tissue-based"}, "Mu-type opioid receptor [7]": {"molecular_target": "Mu-type opioid receptor (Cavia porcellus, UniProt P97266)", "sequence (P97266 whole entry)": "as the sequence (P97266 whole entry) above", "assay": "Agonist activity at mu opioid receptor in Hartley guinea pig ileum longitudinal muscle myenteric plexus assessed as inhibition of electrically-induced smooth muscle contraction after 3 mins", "assay_type": "functional, tissue-based"}}, "data": [{"smiles": "Br.N[C@H]1C[C@@H](C(=O)N[C@@H](Cc2ccccc2)C(=O)N[C@H](Cc2ccccc2)C(=O)O)N(C(=O)[C@@H](N)Cc2ccc(O)cc2)C1", "values": [{"measurement": "inhibition", "setting": "[1]", "result": 1.3, "unit": "%"}, {"measurement": "Ki", "setting": "[2]", "result": "Not Active"}, {"measurement": "Ki", "setting": "Mu-type opioid receptor [3]", "result": 760, "unit": "nM"}, {"measurement": "inhibition", "setting": "[4]", "result": 3.2, "unit": "%"}, {"measurement": "Ki", "setting": "[5]; cho", "result": "Not Active"}]}, {"smiles": "Br.N[C@H]1C[C@@H](C(=O)N[C@H](Cc2ccccc2)C(=O)N[C@H](Cc2ccccc2)C(=O)O)N(C(=O)[C@@H](N)Cc2ccc(O)cc2)C1", "values": [{"measurement": "inhibition", "setting": "[1]", "result": 3.6, "unit": "%"}, {"measurement": "Ki", "setting": "[2]; read-out: Ki", "result": "> 10000", "unit": "nM"}, {"measurement": "Ki", "setting": "Mu-type opioid receptor [3]", "result": "> 10000", "unit": "nM"}, {"measurement": "inhibition", "setting": "[4]", "result": 2, "unit": "%"}, {"measurement": "Ki", "setting": "[5]; cho", "result": "Not Active"}]}, {"smiles": "Br.NC(=O)[C@@H](Cc1ccccc1)NC(=O)[C@@H](Cc1ccccc1)NC(=O)[C@@H]1C[C@H](N)CN1C(=O)[C@@H](N)Cc1ccc(O)cc1", "values": [{"measurement": "inhibition", "setting": "[1]", "result": 0, "unit": "%"}, {"measurement": "Ki", "setting": "[2]", "result": "Not Active"}, {"measurement": "Ki", "setting": "Mu-type opioid receptor [3]", "result": 3700, "unit": "nM"}, {"measurement": "inhibition", "setting": "[4]", "result": 0.9, "unit": "%"}, {"measurement": "Ki", "setting": "[5]; cho", "result": "Not Active"}]}, {"smiles": "N[C@@H](Cc1ccc(O)cc1)C(=O)N1C[C@@H]2C[C@H]1C(=O)N[C@H](Cc1ccccc1)C(=O)N[C@H](Cc1ccccc1)C(=O)N2", "values": [{"measurement": "IC50", "setting": "[6]", "result": 1400, "unit": "nM"}, {"measurement": "Ki", "setting": "[2]; read-out: Ki", "result": 1010, "unit": "nM"}, {"measurement": "IC50", "setting": "Mu-type opioid receptor [7]", "result": 480, "unit": "nM"}, {"measurement": "Ki", "setting": "Mu-type opioid receptor [3]", "result": 63, "unit": "nM"}, {"measurement": "Ki", "setting": "[5]; read-out: Ki", "result": "> 10000", "unit": "nM"}]}, {"smiles": "Br.N[C@H]1C[C@@H](C(=O)N[C@H](Cc2ccccc2)C(=O)N[C@@H](Cc2ccccc2)C(=O)O)N(C(=O)[C@@H](N)Cc2ccc(O)cc2)C1", "values": [{"measurement": "inhibition", "setting": "[1]", "result": 3.6, "unit": "%"}, {"measurement": "Ki", "setting": "[2]", "result": "Not Active"}, {"measurement": "Ki", "setting": "Mu-type opioid receptor [3]", "result": 1010, "unit": "nM"}, {"measurement": "inhibition", "setting": "[4]", "result": 11, "unit": "%"}, {"measurement": "Ki", "setting": "[5]; cho", "result": "Not Active"}]}, {"smiles": "Br.NC(=O)[C@@H](Cc1ccccc1)NC(=O)[C@H](Cc1ccccc1)NC(=O)[C@@H]1C[C@H](N)CN1C(=O)[C@@H](N)Cc1ccc(O)cc1", "values": [{"measurement": "inhibition", "setting": "[1]", "result": 5.4, "unit": "%"}, {"measurement": "Ki", "setting": "[2]", "result": "Not Active"}, {"measurement": "IC50", "setting": "Mu-type opioid receptor [7]", "result": 2300, "unit": "nM"}, {"measurement": "Ki", "setting": "Mu-type opioid receptor [3]", "result": "> 10000", "unit": "nM"}, {"measurement": "Ki", "setting": "[5]; cho", "result": "Not Active"}]}, {"smiles": "Br.NC(=O)[C@H](Cc1ccccc1)NC(=O)[C@@H](Cc1ccccc1)NC(=O)[C@@H]1C[C@H](N)CN1C(=O)[C@@H](N)Cc1ccc(O)cc1", "values": [{"measurement": "inhibition", "setting": "[1]", "result": 14, "unit": "%"}, {"measurement": "Ki", "setting": "[2]", "result": "Not Active"}, {"measurement": "Ki", "setting": "Mu-type opioid receptor [3]", "result": 760, "unit": "nM"}, {"measurement": "inhibition", "setting": "[4]", "result": 12, "unit": "%"}, {"measurement": "Ki", "setting": "[5]; cho", "result": "Not Active"}]}, {"smiles": "N[C@@H](Cc1ccc(O)cc1)C(=O)N1C[C@@H]2C[C@H]1C(=O)N[C@H](Cc1ccccc1)C(=O)N[C@@H](Cc1ccccc1)C(=O)N2", "values": [{"measurement": "IC50", "setting": "[6]", "result": 950, "unit": "nM"}, {"measurement": "Ki", "setting": "[2]; read-out: Ki", "result": 860, "unit": "nM"}, {"measurement": "IC50", "setting": "Mu-type opioid receptor [7]", "result": 330, "unit": "nM"}, {"measurement": "Ki", "setting": "Mu-type opioid receptor [3]", "result": 38, "unit": "nM"}, {"measurement": "Ki", "setting": "[5]; read-out: Ki", "result": "> 10000", "unit": "nM"}]}]}
